Measured values reported in patent US20230309565A1 (priority 2022, published 2023).
In brackets after ≈: the same amount, converted by molar mass.

Columns and labels:
[1] = tested on: Liberibacter crescens BT-1; experiment: microbe, parasite or virus in culture; assay type: cell-based; conditions: for inhibition of growth of L. crescens BT1: BM7 medium, 28° C.
[2] = tested on: Candidatus Liberibacter asiaticus (CLas); assay type: in vivo, Duncan grapefruit
CsPR1 = assay type: in vivo, citrus; conditions: foliar spray 10 ppm and 20 ppm; midribs at 0d, 2d, 2w; relative to CsUbi
CsPR2 = assay type: in vivo, citrus; conditions: foliar spray 10 ppm and 20 ppm; midribs at 0d, 2d, 2w; relative to CsUbi
[3] = assay type: physicochemical; conditions: room temperature; 40-h culture of 0617-T307 in YME media
[4] = methanol and chloroform

## CSC1=C(C)C(=O)C(=O)NC1=O [RejuAgro A]
[1]; 1 mg/L
  inhibition of growth of L. crescens: partial inhibition of growth
[1]; 2.5 mg/L, 16 days
  inhibition of growth of L. crescens: inhibition of growth
[1]; 10 mg/L
  inhibition of growth of L. crescens BT1: inhibition of growth
[1]; 20 mg/L
  inhibition of growth of L. crescens BT1: inhibition of growth
[1]; 40 mg/L
  inhibition of growth of L. crescens BT1: inhibition of growth
[1]; Liberibacter crescens, BT1, read-out: minimal inhibitory concentration (MIC)
  MIC: 2.5 µg/mL (≈ 13.5 µM)
[2]; 10 mg/L sprayed on leaves of citrus Huanglongbing positive trees
  suppression of CLas: effectively suppress
[2]; RAA 10 mg/L foliar spray, HLB-positive Duncan grapefruit, untreated control 7.4×10^5
  CLas titer in citrus leaves: 2.4×10^5 genome equivalent/g tissue DNA
CsPR1
  expression of CsPR1: triggered the expressions
CsPR2
  expression of CsPR2: triggered the expressions
[3]
  present and stable in the culture: at least 4 weeks
[4]
  solubility: can be dissolved in methanol and chloroform

## [H]/N=C(/N)N[C@H]1[C@H](O)[C@@H](O)[C@H](O[C@@H]2O[C@@H](C)[C@](O)(C=O)[C@H]2O[C@@H]2O[C@@H](CO)[C@H](O)[C@@H](O)[C@@H]2NC)[C@@H](N/C(N)=N\[H])[C@@H]1O [streptomycin, reference compound]
[1]; 2.5 mg/L, 16 days
  inhibition of growth of L. crescens: comparable
